Assay results reported in patent publication US10899790B2, “Method for modifying T cell population” (OSAKA UNIVERSITY, priority 2016, dated 2021).
“Also recorded” adds a separate entry of the source.

Assays:
[1] = test system: mouse cancer cell line EG7 expressing OVA; experiment: Effect in vivo: EG7 tumor-bearing B6 mice with transferred OT-1 cells; parameters: species or system C57BL/6J mouse; settings: for frequency of CD45.1+OT-1 cells (OVA specific CD8+ cells) in peripheral blood / expression of CD62L and CD127 in CD45.1+OT-1 cells: 100 μg/mouse tail vein; for frequency of CD45.1+OT-1 cells (OVA specific CD8+ cells) in peripheral blood: 20th day after tumor transplantation (FIG. 5); for expression of CD62L and CD127 in CD45.1+OT-1 cells: 20th day, flow cytometry (FIG. 6); for proliferation of tumor in vivo / tumor volume: 100 μg/mouse through the tail vein, 3 times every other day; for tumor volume: 21st day after transplantation (FIG. 4)
Text: A mouse cancer cell line EG7 (2×10^6) expressing OVA (chicken ovalbumin) was subcutaneously injected into C57BL/6J mouse (B6 mouse) to form a tumor. Five days later, the mouse in which a tumor was formed was irradiated with radiation at 3 Gy, then T cell-receptive OTCD8^+T cells (OT-1 cells) specific for OVA antigen were isolated from CD45.1 positive OT-I transgenic mouse, and this was transferred into the mouse by 2×10^5 through the tail vein. A total of 3 times every other day from the next day, RDH10 inhibitors (Compound No. 1 (RDHI-012) and Compound No. 2 (RDHI-013)) were administered to the mouse at 100 μg/mouse for each through the tail vein. The RDH10 inhibitors were administered to the mouse by being previously stocked in DMSO at 100 μg/50 μl and adjusted to have a total volume of 200 μl by the addition of 150 μl of PBS.
In the experiment, tumor volumes were measured over time. The frequency of OT-1 cells (OVA specific CD8^+T cells) in peripheral blood on the 20th day was measured. Furthermore, the expression intensity of cell surface antigen molecules (CD62L, CD127), which were markers of memory T cells, was analyzed.
The time course in the mean value of tumor volume after tumor transplantation is illustrated in FIG. 4. The error bars indicate the standard error. The tumor volume was determined by major axis×minor axis×height/2.
On the 20th day after the tumor transplantation, the frequency of transferred OT-I cells contained in peripheral blood was analyzed by flow cytometry. OT-I cells were CD45.1 positive and thus were clearly distinguishable from the host B6 mouse (CD45.2 positive)-derived T cells. The representative results are illustrated in FIG. 5.
The expression intensities of CD62L and CD127 in OT-I cells illustrated in FIG. 5 were analyzed by flow cytometry. The mean value and standard error of each expression intensity are illustrated in FIG. 6.

[2] = target: T1, Retinol Dehydrogenase 10 (RDH10) (Homo sapiens, UniProt Q8IZV5); experiment: Inhibition of RDH10 enzyme activity (microsomal fraction of RDH10-expressed 293T, all-trans retinol to all-trans retinal, HPLC); format: biochemical; settings: final concentration of 20 μM; relative to DMSO control (FIG. 1)
T1 construct: expressed in transfected cells; host or cells: 293T (microsomal fraction)
T1 sequence (Q8IZV5 1-341): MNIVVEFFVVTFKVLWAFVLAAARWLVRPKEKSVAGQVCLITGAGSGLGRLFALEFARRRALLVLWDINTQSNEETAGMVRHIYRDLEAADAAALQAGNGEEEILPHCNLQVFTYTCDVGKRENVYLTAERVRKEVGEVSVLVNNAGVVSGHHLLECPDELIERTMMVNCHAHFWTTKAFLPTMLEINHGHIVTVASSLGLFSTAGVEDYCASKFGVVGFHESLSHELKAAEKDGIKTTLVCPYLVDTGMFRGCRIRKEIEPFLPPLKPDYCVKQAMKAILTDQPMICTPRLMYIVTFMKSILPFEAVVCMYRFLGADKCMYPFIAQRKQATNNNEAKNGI
Experimental: All-trans retinol, BSA, and NAD (nicotinamide adenine dinucleotide) as a coenzyme were added to a buffer for reaction (90 mM potassium phosphate buffer, pH7.4, 40 mM KCl) so as to have final concentrations of 10 μM, 10 μM, and 1 mM respectively. This mixture was taken in siliconized tubes by 200 μl for each, the microsomal fractions separated from 293T and RDH10-expressed 293T were added to separate tubes by 10 μl for each, and the mixtures were allowed to react at 37° C. for 15 minutes. After 200 μl of methanol was added to the reaction mixtures to stop the reaction, retinoid was extracted using hexane and concentrated. The concentrated retinoid was dissolved in 150 μl of acetonitrile, separated by HPLC, and subjected to the detection of ultraviolet light absorption at a wavelength of 350 nm, whereby the substrate (all-trans retinol) and the product (all-trans retinal) were detected. In addition, standard samples (all-trans retinol and all-trans retinal) were separated by HPLC and the retention times of the respective standard samples were determined in advance. The solvent for HPLC was acetonitrile: 50 mM ammonium acetate=75:25. As the separation column, Syhergi 4 μm Hydro-RP 80A (manufactured by Phenomenex) was used. In addition, the flow rate was 2.0 ml/min. The RDH10 enzyme activity was calculated by reading the amount of product per fixed time from the chart of HPLC.
All-trans retinol, BSA, and NAD (nicotinamide adenine dinucleotide) as a coenzyme were added to a buffer for reaction (90 mM potassium phosphate buffer, pH7.4, 40 mM KCl) so as to have final concentrations of 10 μM, 10 μM, and 1 mM respectively. This mixture was taken in siliconized tubes by 200 μl for each, the microsomal fraction separated from RDH10-expressed 293T was added to separate tubes by 10 μl for each. The RDH10 inhibitor dissolved in DMSO was added to each tube so as to have a final concentration of 20 μM, and the same amount of DMSO was added to the control tube. The mixture was allowed to react at 37° C. for 15 to 30 minutes, 200 μl of methanol was added to the reaction mixtures, and then retinoid was extracted using hexane and concentrated. The concentrated retinoid was dissolved in 150 μl of acetonitrile, separated by HPLC, and subjected to the detection of ultraviolet light absorption at a wavelength of 350 nm, whereby the substrate (all-trans retinol) and the product (all-trans retinal) were detected. In addition, standard samples (all-trans retinol and all-trans retinal) were separated by HPLC and the retention times of the respective standard samples were determined in advance. The solvent for HPLC was acetonitrile: 50 mM ammonium acetate=75:25. As the separation column, Syhergi 4 μm Hydro-RP 80A (manufactured by Phenomenex) was used. The flow rate was 2.0 ml/min.
The enzyme activity was determined by the waveform area of the product (all-trans retinal) with respective to the waveform area of the non-reacted substrate (all-trans retinol), and the relative value with respect to the enzyme activity in the control is illustrated in FIG. 1. The error bars indicate SD (standard deviation).

Structure (SMILES)	frequency of CD45.1+OT-1 cells (OVA specific CD8+ cells) in peripheral blood [1]	expression of CD62L and CD127 in CD45.1+OT-1 cells [1]	proliferation of tumor in vivo [1]	tumor volume [1]	RDH10 enzyme activity inhibitory action [2]
COC(=O)[C@@]1(C)CC[C@]2(C)CC[C@]3(C)C(=CC(=O)[C@@H]4[C@@]5(C)CCC(N)C(C)(C)[C@@H]5CC[C@]43C)[C@H]2C1 (stereo partly drawn) [Compound No. 1, (2S,4aS,6aS,6bR,8aR,12aS,12bR,14bS)-methyl 10-amino-2,4a,6a,6b,9,9,12a-heptamethyl-13-oxo-1,2,3,4,4a,5,6,6a,6b,7,8,8a,9,10,11,12,12a,12b,13,14b-icosahydropicene-2-carboxylate]	amplify CD45.1^+OT-1 cells	accelerate the expression of CD62L and CD127	suppress the proliferation of tumor in vivo	decreased to one several tenths to one several hundredths	relatively potent; also recorded: potent RDH10 enzyme activity inhibitory action
COC(=O)[C@@]1(C)CC[C@]2(C)CC[C@]3(C)C(=CC(=O)[C@@H]4[C@@]5(C)CCC(N)C(C)(C)[C@@H]5CC[C@]43C)[C@@H]2C1 (stereo partly drawn) [Compound No. 2, (2S,4aS,6aS,6bR,8aR,12aS,12bR,14bR)-methyl 10-amino-2,4a,6a,6b,9,9,12a-heptamethyl-13-oxo-1,2,3,4,4a,5,6,6a,6b,7,8,8a,9,10,11,12,12a,12b,13,14b-icosahydropicene-2-carboxylate]	amplify CD45.1^+OT-1 cells	accelerate the expression of CD62L and CD127	suppress the proliferation of tumor in vivo	decreased to one several tenths to one several hundredths	relatively potent; also recorded: potent RDH10 enzyme activity inhibitory action
